From patent US12251373B2, “Compounds and methods of treating retinal degeneration” (CASE WESTERN RESERVE UNIVERSITY, priority 2017, dated 2025) come the findings set out here.

One test has as its target T1, bovine opsin (Bos taurus, UniProt P02699).
T1 construct: ROS membranes were isolated from bovine retinas under dim red light; from tissue; host or cells: bovine retina rod outer segment (ROS) membranes, bleached with hydroxylamine
Briefly: Ligand-opsin binding by Trp fluorescence quenching in ROS disc membranes. The note with it: for EC50: opsin in disc membranes, read-out: EC50 of Trp fluorescence quenching at 330 nm. The protocol:
ROS membranes were isolated from bovine retinas under dim red light. To remove membrane associated proteins, ROS membranes were washed with a hypotonic buffer composed of 5 mM bis-tris propane (BTP) and 1 mM EDTA, pH 7.5, followed by gentle homogenization with subsequent centrifugation at 25,000 g for 30 min. This procedure was repeated four times. The final membrane pellet was suspended in 10 mM sodium phosphate buffer, pH 7.0, and 50 mM hydroxylamine to a 3 mg mL^−1 concentration of rhodopsin, placed on ice and illuminated with a 150 Watt bulb for 30 min. Membranes were pelleted by centrifugation at 16,000 g for 5 min and then washed four times with 10 mM sodium phosphate buffer, pH 7.0, and 2% bovine serum albumin followed by 4 washes with 10 mM sodium phosphate buffer, pH 7.0, and 2 washes with 20 mM BTP, pH 7.5, and 100 mM NaCl. The concentration of opsin was measured with a UV-visible spectrophotometer and quantified using the absorption coefficient ε280 nm=81,200 M^−1 cm^−1.
Emission spectra were recorded with a Perkin Elmer L55 Luminescence Spectrophotometer at 20° C. between 300 and 450 nm after excitation at 295 nm, with excitation and emission slit bands set at 5 and 10 nm, respectively. Changes in Trp fluorescence (ΔF/F0; where ΔF is the difference between the initial Trp fluorescence recorded at 330 nm (F0) and Trp fluorescence recorded at 330 nm at a specified YC-001 concentration) were plotted as a function of the ligand concentration. Binding curves were fitted by the Hill function using Origin software for each compound and the EC50 was calculated. All experimental data were corrected for background and self-absorption of excitation and emission light (inner filter effect).

In another test the target is mouse P23H opsin mutant (Mus musculus, UniProt P15409, P23H). Briefly: β-Gal fragment complementation assay: rescue of P23H opsin transport from ER to plasma membrane, U2OS(PLC-EA/P23H-PK) cells. The test is classed as cell-based. The note with it: for Emax: U2OS; for dependence of activity on light exposure of cells: cells exposed to light vs dark. An excerpt: U2OS(PLC-EA/P23H-PK) cells. A U2OS stable cell line was generated by DiscoveRx, Inc. (Fremont, CA, USA) for the β-Gal fragment complementation assay used in the small molecule HTS for rescue of P23H opsin transport. U2OS cells that continually express P23H-PK and PLC-EA fusion proteins were generated. Briefly, this small subunit of […] (PK fragment) was fused to the C-terminal of the mouse P23H opsin mutant, while the large EA fragment, a subunit of […], was fused with PLC, a plasma membrane anchored peptide. Both constructs were subcloned by DicoveRx, Inc. and transferred into U2OS cells by viral infections. Positive clones were selected under treatment with hygromycin and geneticin.
Briefly, U2OS(PLC-EA/P23H-PK) cells were suspended in assay medium at 3×10^5 cells mL^−1. The cell suspension was dispensed into 384-well plates (Greiner Bio-one, Monroe, NC, USA) at 20 μL per well, with a Multidrop dispenser (Thermo Scientific, Waltham, MA, USA). Plates with cells then were centrifuged at 200 g for 15 s before incubation at 37° C. with 5% CO2. Plates were removed 24 h later for treatment with tested compounds. A total of 248 plates containing 79,080 compounds from three small molecule libraries were paired with an equal number of assay plates with cultured cells. Due to a limited capacity, these plates were assayed in seven batches. An average of 56.3 nL of 10 mM compound in DMSO was dispensed into each well from column 3 to 22 of paired assay plates using a 50 nL 384-pintool system, such that the final concentration of each compound was 22.52 μM on average. […] Each assay plate was shaken for 5 s before further incubation at 37° C. with 5% CO2. […] Assay plates were incubated in the dark for 60-90 min, and luminescence was read from each assay plate with an Envision microplate reader (PerkinElmer) during a 0.1 s per well integration time. The mean and s.d. of readouts in column 2 of each plate were calculated as Mean0% and SD0%, whereas the average and s.d. of readouts in column 23 were calculated as Mean100% and SD100%. Equation 1: Activity scores (%)=(RLUcp−Mean0%)/(Mean100%−Mean0%)×100%, where RLUcp is the relative luminescence unit derived for cells treated with a compound. Equation 2: Z′-factor=1-3×(SD0%+SD100%)/(Mean100%−Mean0%); Equation 3: signal-to-background (S/B) ratio=Mean100%/Mean0%. Activities of all tested compounds were registered with their compound ID by GeneData Screener (Genedata, Basel, Switzerland) and Pipeline Pilot software (Accelrys, San Diego, CA, USA). Hits, cherry-picked from a separate stock dose-dependent activity test, were selected with an activity score cutoff at 20%. Activity of each hit was tested again with the β-Gal fragment complementation assay in a 10-dose series with each dose tested in triplicate. The 10 doses tested were 80, 40, 20, 10, 5, 2.5, 1.25, 0.625, 0.313, and 0.156 μM. Dose-dependent curves of each hit compound were fitted with GeneData and Origin software.
Detailed synthetic steps are described in FIG. 18. […] YC-002-YC-021 were purchased from commercial vendors including Enamine LLC (Monmouth Jct., NJ, USA), Matrix Scientific (Columbia, SC, USA) and Tokyo Chemical Industry Co., Ltd. (Portland, OR, USA). […] Activities of YC compounds were tested with the β-Gal fragment complementation assay, as described in a prior section. All YC compounds were tested at 10 doses, each in triplicate: 80, 40, 20, 10, 5, 2.5, 1.25, 0.625, 0.313, and 0.156 μM.

Where [1] appears, read: Table 1, scores relative to 9-cis-retinal, read-out: β-Gal fragment complementation assay Activity score (%) EC50.
Where [2] appears, read: Table 1, experimental maximum, read-out: β-Gal fragment complementation assay Activity score (%) Max (Exp).
The mark [3] stands for this setting: Table 1, fitted maximum, read-out: β-Gal fragment complementation assay Activity score (%) Max (fit).

Read-outs that look alike come from different tables or passages of the source.

T1 sequence (P02699 whole entry): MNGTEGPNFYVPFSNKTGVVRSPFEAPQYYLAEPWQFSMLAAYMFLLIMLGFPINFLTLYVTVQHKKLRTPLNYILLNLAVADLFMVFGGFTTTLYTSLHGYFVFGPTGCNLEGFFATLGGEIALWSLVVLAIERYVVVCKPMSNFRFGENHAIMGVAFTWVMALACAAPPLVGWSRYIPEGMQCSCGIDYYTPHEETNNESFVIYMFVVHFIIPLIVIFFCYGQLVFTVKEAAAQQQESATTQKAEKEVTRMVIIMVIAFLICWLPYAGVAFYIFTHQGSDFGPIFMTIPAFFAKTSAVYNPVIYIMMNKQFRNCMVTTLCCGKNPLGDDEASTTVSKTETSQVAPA

As to `O=C1OCC(c2ccc(Cl)s2)=C1c1cccs1` [YC-001], the EC50 on bovine opsin worked out at 0.98 ± 0.05 µM; at mouse P23H opsin mutant (HTS hit confirmation, FIG. 1E, read-out: potency), 7.8 µM; at mouse P23H opsin mutant (setting [1]), 8.7 µM; on mouse P23H opsin mutant (Table 5, more than one site modified, read-out: Potency), 8.39 µM. The “time to maximum activity” value at mouse P23H opsin mutant (FIG. 1F, 40 μM YC-001) is recorded as at most 15 h. Besides, the Emax was determined as 310% on mouse P23H opsin mutant (setting [2]), 310% at mouse P23H opsin mutant (setting [3]) and 248% on mouse P23H opsin mutant (read-out: Efficacy (%)). Also, the “effect of co-treatment with scriptaid on P23H opsin transport” value at mouse P23H opsin mutant (YC-001 and scriptaid co-treatment) is “synergistic effect”. Besides, the “dependence of activity on light exposure of cells” value at mouse P23H opsin mutant was “not affected”. Besides, on mouse P23H opsin mutant (with 5 μM 9-cis-retinal, FIG. 1G), the “effect of co-treatment with 9-cis-retinal” value was “No additive effect”.
Regarding `O=C(CCCCCN1C(=O)c2cccc3cccc(c23)C1=O)NO` [Scriptaid, reference compound], on bovine opsin (FIG. 3G), the “effect on Trp fluorescence” value was “didn't affect Trp fluorescence”. Also, the “activity in rescuing P23H opsin transport (in words)” value at mouse P23H opsin mutant was “strong activity”. At mouse P23H opsin mutant (setting [1]), the EC50 stood at 3.09 µM. Besides, the Emax was 98% on mouse P23H opsin mutant (setting [2]) and 98.2% at mouse P23H opsin mutant (setting [3]).
With `CC1=C(/C=C/C(C)=C\C=C\C(C)=C\C=O)C(C)(C)CCC1` [9-cis-retinal, reference compound], the results for the EC50 at bovine opsin and on mouse P23H opsin mutant (setting [1]) were 1.2 ± 0.1 µM and 2.7 µM, respectively. The Emax was determined as 123% at mouse P23H opsin mutant (setting [2]) and 159% on mouse P23H opsin mutant (setting [3]). Besides, the “dependence of activity on light exposure of cells” value on mouse P23H opsin mutant is given as “required that cells be incubated in the dark”.
